From EP2914280B1, “SOMATOSTATIN-DOPAMINE CHIMERIC ANALOGS” (IPSEN PHARMA S.A.S., priority 2012, dated 2014) come the findings set out here.

Structures are written as SMILES. Bridge positions count the residues as written; N and C are the ends. Square brackets hold non-standard residues; d marks the D form. Peptide text beside a SMILES is read from it. * marks the point of attachment. X2 = CN1C[C@H](CSCC(=O)*)C[C@@H]2c3cccc4[nH]cc(c34)C[C@H]21; Phe(4-F) = N[C@@H](Cc1ccc(F)cc1)C(=O)O

In test [1] the target is T1, hSSTR2 (Homo sapiens, UniProt P30874).
T1 construct: host or cells: 'Cells expressing hSSTR2'
The experiment in a line: Somatostatin receptor radioligand binding assay (hSSTR2).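 Further: radioligand displacement on membranes of CHO-K1 cells stably transfected with human SSTR2, specific binding taken as total minus binding left with 1000 nM SRIF-14.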
Experimental: The affinities of a test compound for the human somatostatin receptors were determined by radioligand binding assays in CHO-K1 cells stably transfected with each of the human somatostatin receptor subtypes, hSSTR1-5. […] Clonal cell lines stably expressing each of the somatostatin receptors were obtained by transfection into CHO-K1 cells (ATCC) and subsequently selected with culture media containing 0.8 mg/mL of G418 (Life Technologies).
Membranes for in vitro receptor binding assays were obtained by the following procedures. […] The supernatant containing the plasma membranes was centrifuged at 100,000 x g for 30 minutes and the pellet was resuspended in buffer containing 20 mM glycine-glycine, 1 mM MgCl2, 250 mM sucrose, pH 7.2, for storage at -80°C.
For the SSTR1, 2 and 5 assays, membranes and various concentrations of test compounds were incubated in 96-well plates for 60 minutes at 25°C with 0.05 nM [^125I-Tyr^11]-SRIF-14 (for hSSTR1; PerkinElmer Life Science), 0.05 nM [^125I-Tyr]-seglitide (for hSSTR2; PerkinElmer Life Science) or 0.05 nM [^125I-Tyr]-[DPhe-cyclo(Cys-Tyr-DTrp-Lys-Val-Cys)-Thr-NH2] (for hSSTR5; PerkinElmer Life Science) in 50 mM HEPES, 0.2% BSA, 0.1 mM MgCl2, pH 7.5.
The incubations were terminated by rapid filtration through GF/C glass microfiber filter plates (pre-wet with 0.3% polyethyleneimine and 0.1 % BSA) using a 96-well cell harvester (Brandel). Plates were washed six times with 1 mL/well aliquots of ice-cold buffer containing 50 mM Tris buffer, pH 7.7. Specific binding was defined as the total radioligand bound minus the bound in the presence of 1000 nM SRIF-14.

The target of test [2] is T1, hSSTR2. Kind of test: Intracellular calcium mobilization assay (FLIPR Calcium 4), hSSTR2.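 Further: agonist activity measured in cells expressing hSSTR2, seeded in 384-well plates, loaded with Calcium 4 dye, read-out as rise in intracellular calcium.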 The format is cell-based.
Experimental: The ability of select compounds according to the present invention to activate hSSTR2 and hDRD2 was determined by the intracellular calcium mobilization assay using FLIPR Calcium 4 assay kit (Molecular Devices).
Cells expressing hSSTR2 or hDRD2 were plated in 384-well microplates in tissue culture media and incubated for 16-24 hours at 37°C in a humidified atmosphere with 5% CO2. Medium was replaced by loading buffer containing Hank's buffered saline, 20 mM HEPES, 2.5 mM probenecid and Calcium 4 dye, and the plates were incubated at 37°C for 60 minutes.
Test [3] addresses T2, hDRD2 (Homo sapiens, UniProt P14416). Kind of test: cell-based. Also on record: host or cells: 'Cells expressing hDRD2'. As to conditions: for Emax: read-out: hDRD2 %Emax ± SEM.
Test [4] has as its target T2, hDRD2. Kind of test: biochemical. The format is binding. Also on record: expressed in transfected cells; host or cells: CHO-K1, pcDNA3.1/GS, zeocin-selected clonal line; membranes.
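Wherever Emax is given: agonist activity at human DRD2 in DRD2-expressing cells, read as intracellular calcium mobilization with a FLIPR Calcium 4 fluorescent dye.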

T1 sequence (P30874 whole entry): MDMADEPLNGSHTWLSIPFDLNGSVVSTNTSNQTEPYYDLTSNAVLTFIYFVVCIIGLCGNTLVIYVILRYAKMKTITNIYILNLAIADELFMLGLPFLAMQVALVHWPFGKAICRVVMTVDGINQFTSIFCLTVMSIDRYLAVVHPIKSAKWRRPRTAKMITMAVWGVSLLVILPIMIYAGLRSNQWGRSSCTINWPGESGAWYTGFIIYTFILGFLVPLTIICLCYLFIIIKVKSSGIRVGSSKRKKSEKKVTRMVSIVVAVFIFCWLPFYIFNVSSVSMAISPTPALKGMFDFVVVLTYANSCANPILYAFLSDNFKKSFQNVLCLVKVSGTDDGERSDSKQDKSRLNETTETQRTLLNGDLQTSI
T2 sequence (P14416 whole entry): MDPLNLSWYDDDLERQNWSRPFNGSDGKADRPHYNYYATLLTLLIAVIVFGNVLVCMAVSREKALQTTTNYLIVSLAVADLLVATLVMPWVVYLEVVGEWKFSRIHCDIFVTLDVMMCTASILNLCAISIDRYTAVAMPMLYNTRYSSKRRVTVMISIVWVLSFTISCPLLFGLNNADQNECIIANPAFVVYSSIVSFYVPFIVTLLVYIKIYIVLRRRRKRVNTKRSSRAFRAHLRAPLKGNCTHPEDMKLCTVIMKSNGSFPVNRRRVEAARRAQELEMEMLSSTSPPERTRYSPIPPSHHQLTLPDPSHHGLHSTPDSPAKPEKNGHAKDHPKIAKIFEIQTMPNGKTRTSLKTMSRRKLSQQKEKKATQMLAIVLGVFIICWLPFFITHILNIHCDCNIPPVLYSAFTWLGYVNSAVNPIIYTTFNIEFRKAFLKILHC

Take `C[C@@H](O)[C@@H]1NC(=O)[C@H](CCCCN)NC(=O)[C@@H](Cc2c[nH]c3ccccc23)NC(=O)[C@H](Cc2ccccc2)NC(=O)[C@H](Cc2ccccc2)NC(=O)[C@H](CCCNC(=N)N)NC(=O)[C@H](NC[C@H](Cc2ccc(O)cc2)NC(=O)CS(=O)(=O)C[C@@H]2C[C@@H]3c4cccc5[nH]cc(c45)C[C@H]3N(C)C2)CCCCNC(=O)[C@H](Cc2ccc(F)cc2)NC1=O` [Compound 19, Dop1(SO2)-Tyr-psi(CH2NH)-cyclo(DLys-Arg-Phe-Phe-DTrp-Lys-Thr-4FPhe)]: the inhibition constant (Ki) on hSSTR2 [1] was 0.16 ± 0.12 nM; on hDRD2 [4], over 1000 nM. Also, the EC50 stood at 4.3 ± 1.2 nM on hSSTR2 [2] and 701 ± 220 nM on hDRD2 [3]. The Emax at hDRD2 [3] worked out at 90.7 ± 5.7%.

Turning to `C[C@@H](O)[C@@H]1NC(=O)[C@H](CCCCN)NC(=O)[C@@H](Cc2c[nH]c3ccccc23)NC(=O)[C@H](Cc2ccncc2)NC(=O)[C@H](Cc2ccccc2)NC(=O)[C@H](CCCNC(=N)N)NC(=O)[C@H](NC[C@H](Cc2ccc(O)cc2)NC(=O)CS(=O)(=O)C[C@@H]2C[C@@H]3c4cccc5[nH]cc(c45)C[C@H]3N(C)C2)CCCCNC(=O)[C@H](Cc2ccccc2)NC1=O` [Compound 21, Dop1(SO2)-Tyr-psi(CH2NH)-cyclo(DLys-Arg-Phe-4Pal-DTrp-Lys-Thr-Phe)], the figures for the inhibitory constant (Ki) at hSSTR2 [1] and at hDRD2 [4] were 0.02 ± 0.01 nM and over 1000 nM, respectively. The values for the EC50 at hSSTR2 [2] and at hDRD2 [3] were 0.9 ± 0.1 nM and 208 ± 26.8 nM, respectively. In addition, the Emax at hDRD2 [3] came out at 92.1 ± 0.2%.

For the compound `C[C@@H](O)[C@@H]1NC(=O)[C@H](CCCCN)NC(=O)[C@@H](Cc2c[nH]c3ccccc23)NC(=O)[C@H](Cc2ccccc2)NC(=O)[C@H](Cc2ccccc2)NC(=O)[C@H](CCCNC(=N)N)NC(=O)[C@H](NCCCCC[C@@H]2C[C@@H]3c4cccc5[nH]cc(c45)C[C@H]3N(C)C2)CCCCNC(=O)[C@H](Cc2ccc(F)cc2)NC1=O` [Compound 3, (D-6-methyl-8β-ergolinyl)-pentanoyl-psi(CH2NH)-cyclo(DLys-Arg-Phe-Phe-DTrp-Lys-Thr-4FPhe)], the inhibition constant Ki at hSSTR2 [1] was determined as 0.72 ± 0.17 nM; at hDRD2 [4] it was 45.2 ± 4.9 nM. Besides, the results for the EC50 at hSSTR2 [2] and on hDRD2 [3] were 137 ± 63.8 nM and 212 ± 85.6 nM, respectively. Also, at hDRD2 [3], the Emax is 84.1 ± 12.2%.

As for `C[C@@H](O)[C@@H]1NC(=O)[C@H](CCCCN)NC(=O)[C@@H](Cc2c[nH]c3ccccc23)NC(=O)[C@H](Cc2ccccc2)NC(=O)[C@H](Cc2ccccc2)NC(=O)[C@H](CCCNC(=N)N)NC(=O)[C@H](NCCSC[C@@H]2C[C@@H]3c4cccc5[nH]cc(c45)C[C@H]3N(C)C2)CCCCNC(=O)[C@H](Cc2cccc(F)c2)NC1=O` [Compound 6C, Dop1-psi(CH2NH)-cyclo(DLys-Arg-Phe-Phe-DTrp-Lys-Thr-3FPhe)], the Ki on hSSTR2 [1] is 0.15 ± 0.04 nM; at hDRD2 [4] it was 30.3 ± 3.7 nM. For the same compound, the values for the EC50 on hSSTR2 [2] and on hDRD2 [3] were 16.2 ± 5.9 nM and 60 ± 21.7 nM, respectively. On hDRD2 [3], the Emax came to 94.4 ± 5.1%.

As for `C[C@@H](O)[C@@H]1NC(=O)[C@H](CCCCN)NC(=O)[C@@H](Cc2c[nH]c3ccccc23)NC(=O)[C@H](Cc2ccccc2)NC(=O)[C@H](Cc2ccccc2)NC(=O)[C@H](CCCNC(=N)N)NC(=O)[C@H](NCCSC[C@@H]2C[C@@H]3c4cccc5[nH]cc(c45)C[C@H]3N(C)C2)CCCCNC(=O)[C@H](Cc2cc(F)cc(F)c2)NC1=O` [Compound 6B, Dop1-psi(CH2NH)-cyclo(DLys-Arg-Phe-Phe-DTrp-Lys-Thr-3,5FPhe)], the results for the Ki at hSSTR2 [1] and at hDRD2 [4] were 0.25 ± 0.03 nM and 25.4 ± 7.9 nM, respectively. Besides, the EC50 on hSSTR2 [2] was 17 ± 6.5 nM; at hDRD2 [3] it was 112 ± 27.8 nM. Moreover, the Emax at hDRD2 [3] amounted to 85.1 ± 9.6%.

`C[C@@H](O)[C@@H]1NC(=O)[C@H](CCCCN)NC(=O)[C@@H](Cc2c[nH]c3ccccc23)NC(=O)[C@H](Cc2ccccc2)NC(=O)[C@H](Cc2ccccc2)NC(=O)[C@H](CCCNC(=N)N)NC(=O)[C@H](NCCSC[C@@H]2C[C@@H]3c4cccc5[nH]cc(c45)C[C@H]3N(C)C2)CCCCNC(=O)[C@H](Cc2ccccc2F)NC1=O` [Compound 6D, Dop1-psi(CH2NH)-cyclo(DLys-Arg-Phe-Phe-DTrp-Lys-Thr-2FPhe)]: the results for the Ki at hSSTR2 [1] and on hDRD2 [4] were 0.54 ± 0.12 nM and 31.8 ± 11.8 nM, respectively. In addition, the results for the EC50 on hSSTR2 [2] and on hDRD2 [3] were 25 ± 7.7 nM and 64.5 ± 20.5 nM, respectively. The maximal response (Emax) on hDRD2 [3] was 101 ± 2.7%.

As to `C[C@@H](O)[C@@H]1NC(=O)[C@H](CCCCN)NC(=O)[C@@H](Cc2c[nH]c3ccccc23)NC(=O)[C@H](Cc2ccccc2)NC(=O)[C@H](Cc2ccccc2)NC(=O)[C@H](CCCNC(=N)N)NC(=O)[C@@H](NC[C@H](Cc2ccc(O)cc2)NC(=O)CSC[C@@H]2C[C@@H]3c4cccc5[nH]cc(c45)C[C@H]3N(C)C2)CCCCNC(=O)[C@H](Cc2ccccc2)NC1=O` [Compound 31, Dop1-Tyr-psi(CH2NH)-cyclo(Lys-Arg-Phe-Phe-DTrp-Lys-Thr-Phe)], the Ki at hSSTR2 [1] came to 0.51 ± 0.1 nM; on hDRD2 [4], 38.6 ± 28.6 nM. In addition, the EC50 on hSSTR2 [2] was determined as 13.3 ± 0.9 nM; at hDRD2 [3], 37.7 ± 4.6 nM. Moreover, at hDRD2 [3], the Emax worked out at 94.8 ± 9.7%.

For `C[C@@H](O)[C@@H]1NC(=O)[C@H](CCCCN)NC(=O)[C@@H](Cc2c[nH]c3ccccc23)NC(=O)[C@H](Cc2ccccc2)NC(=O)[C@H](Cc2ccccc2)NC(=O)[C@H](CCCNC(=N)N)NC(=O)[C@H](NC(=O)CSC[C@@H]2C[C@@H]3c4cccc5[nH]cc(c45)C[C@H]3N(C)C2)CCCCNC(=O)[C@H](Cc2ccc(F)cc2)NC1=O` [Compound 34, Dop1-cyclo(DLys-Arg-Phe-Phe-DTrp-Lys-Thr-4FPhe)] (X2-[dK]RFF[dW]KT[Phe(4-F)]; lactam 1-C), the results for the Ki at hSSTR2 [1] and on hDRD2 [4] were 4.55 ± 1.15 nM and 299 nM, respectively. Besides, the figures for the EC50 at hSSTR2 [2] and on hDRD2 [3] were 14.6 ± 5.7 nM and 72.7 nM, respectively. On hDRD2 [3], the Emax amounted to 77.9%.

As to `C[C@@H](O)[C@@H]1NC(=O)[C@H](CCCCN)NC(=O)[C@@H](Cc2c[nH]c3ccccc23)NC(=O)[C@H](Cc2ccccc2)NC(=O)[C@H](Cc2ccccc2)NC(=O)[C@H](CCCNC(=N)N)NC(=O)[C@H](NCCCC[C@@H]2C[C@@H]3c4cccc5[nH]cc(c45)C[C@H]3N(C)C2)CCCCNC(=O)[C@H](Cc2ccc(F)cc2)NC1=O` [Compound 2, (D-6-methyl-8β-ergolinyl)-butanoyl-psi(CH2NH)-cyclo(DLys-Arg-Phe-Phe-DTrp-Lys-Thr-4FPhe)], the figures for the Ki at hSSTR2 [1] and at hDRD2 [4] were 0.79 ± 0.06 nM and 6.9 ± 0.4 nM, respectively. Besides, the EC50 at hSSTR2 [2] came to 21.1 ± 6.7 nM; on hDRD2 [3], 55.7 ± 12.4 nM. On hDRD2 [3], the Emax turned out to be 84 ± 7.6%.

In the case of `CC(=O)N(CCCN[C@@H]1CCCCNC(=O)[C@H](Cc2ccc(F)cc2)NC(=O)[C@H]([C@@H](C)O)NC(=O)[C@H](CCCCN)NC(=O)[C@@H](Cc2c[nH]c3ccccc23)NC(=O)[C@H](Cc2ccccc2)NC(=O)[C@H](Cc2ccccc2)NC(=O)[C@H](CCCNC(=N)N)NC1=O)C[C@@H]1C[C@@H]2c3cccc4[nH]cc(c34)C[C@H]2N(C)C1` [Compound 29A, 3-[N-acetyl-(D-6-methyl-8β-ergolinylmethyl)]-aminopropionyl-psi(CH2NH)-cyclo(DLys-Arg-Phe-Phe-DTrp-Lys-Thr-4FPhe)], the values for the Ki on hSSTR2 [1] and at hDRD2 [4] were 0.13 nM and 46.8 ± 7.4 nM, respectively. For the same compound, the values for the EC50 on hSSTR2 [2] and at hDRD2 [3] were 8.2 ± 0.7 nM and 62.7 ± 14.8 nM, respectively. Further, at hDRD2 [3], the Emax amounted to 82.8 ± 6.7%.
